Experimental data reported in US12077503B2, “Substituted cyclic amides and their use as herbicides” (FMC CORPORATION, priority 2015, dated 2024).
Where two headings read alike, the source gives them in different places.

Tests used:
Type in all cases: in vivo
Kochia (Kochia scoparia) [1] = assay: Test A preemergence; conditions: Bassia scoparia, pre-emergence, 240 h; for pest or weed control at 125 g/ha: 125 g ai/ha, Preemergence, visual injury rating after approximately 10 d, read-out: Kochia plant response rating (0 to 100 scale, 0 is no effect, 100 is complete control); for pest or weed control at 500 g/ha: 500 g ai/ha, preemergence, visual injury rating about 10 d after treatment, 0 to 100 scale (0 no effect, 100 complete control), read-out: Kochia plant response rating
Method in brief: (§1)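 Preemergence soil spray on seeded pots or post-emergence spray on 1–2 leaf plants, in loam–sand blend. Greenhouse ~10 d. Visual rating 0–100 against untreated plants.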

[2] = test system: barnyardgrass (Echinochloa crus-galli); assay: Test A preemergence; conditions: Echinochloa crus-galli, pre-emergence, 240 h; for pest or weed control at 125 g/ha: 125 g ai/ha, Preemergence, visual injury rating after approximately 10 d, read-out: Barnyardgrass plant response rating (0 to 100 scale, 0 is no effect, 100 is complete control); for pest or weed control at 500 g/ha: 500 g ai/ha, preemergence, visual injury rating about 10 d after treatment, 0 to 100 scale (0 no effect, 100 complete control), read-out: Barnyardgrass plant response rating
Method in brief: as §1

[3] = test system: giant foxtail (Setaria faberii); assay: Test A preemergence; conditions: Setaria faberi, pre-emergence, 240 h; for pest or weed control at 125 g/ha: 125 g ai/ha, Preemergence, visual injury rating after approximately 10 d, read-out: Foxtail, Giant plant response rating (0 to 100 scale, 0 is no effect, 100 is complete control); for pest or weed control at 500 g/ha: 500 g ai/ha, preemergence, visual injury rating about 10 d after treatment, 0 to 100 scale (0 no effect, 100 complete control), read-out: Foxtail, Giant plant response rating
Method in brief: as §1

[4] = test system: pigweed (Amaranthus retroflexus); assay: Test A preemergence; conditions: Amaranthus retroflexus, pre-emergence, 240 h; for pest or weed control at 125 g/ha: 125 g ai/ha, Preemergence, visual injury rating after approximately 10 d, read-out: Pigweed plant response rating (0 to 100 scale, 0 is no effect, 100 is complete control); for pest or weed control at 500 g/ha: 500 g ai/ha, preemergence, visual injury rating about 10 d after treatment, 0 to 100 scale (0 no effect, 100 complete control), read-out: Pigweed plant response rating
[5] = test system: ragweed (common ragweed, Ambrosia elatior); assay: Test A preemergence; conditions: Ambrosia artemisiifolia, pre-emergence, 240 h; for pest or weed control at 125 g/ha: 125 g ai/ha, Preemergence, visual injury rating after approximately 10 d, read-out: Ragweed plant response rating (0 to 100 scale, 0 is no effect, 100 is complete control); for pest or weed control at 500 g/ha: 500 g ai/ha, preemergence, visual injury rating about 10 d after treatment, 0 to 100 scale (0 no effect, 100 complete control), read-out: Ragweed plant response rating
Method in brief: as §1

[6] = test system: ryegrass, Italian (Italian ryegrass, Lolium multiflorum); assay: Test A preemergence; conditions: Lolium multiflorum, pre-emergence, 240 h; for pest or weed control at 125 g/ha: 125 g ai/ha, Preemergence, visual injury rating after approximately 10 d, read-out: Ryegrass, Italian plant response rating (0 to 100 scale, 0 is no effect, 100 is complete control); for pest or weed control at 500 g/ha: 500 g ai/ha, preemergence, visual injury rating about 10 d after treatment, 0 to 100 scale (0 no effect, 100 complete control), read-out: Ryegrass, Italian plant response rating
Method in brief: as §1

[7] = test system: Galium (catchweed bedstraw, Galium aparine); assay: Test A postemergence; conditions: Galium, post-emergence, 240 h; for pest or weed control at 125 g/ha: 125 g ai/ha
Method in brief: as §1

Kochia (Kochia scoparia) [8] = assay: Test A postemergence; conditions: Bassia scoparia, post-emergence, 240 h; for pest or weed control at 125 g/ha: 125 g ai/ha
Method in brief: as §1

[9] = test system: barnyardgrass (Echinochloa crus-galli); assay: Test A postemergence; conditions: Echinochloa crus-galli, post-emergence, 240 h, read-out: Plant response rating, Barnyardgrass; for pest or weed control at 125 g/ha: 125 g ai/ha, Postemergence, visual injury after approximately 10 d, 0 to 100 scale where 0 is no effect and 100 is complete control
Method in brief: as §1

[10] = test system: blackgrass (Alopecurus myosuroides); assay: Test A postemergence; conditions: Alopecurus myosuroides, post-emergence, 240 h, read-out: Plant response rating, Blackgrass; for pest or weed control at 125 g/ha: 125 g ai/ha, Postemergence, visual injury after approximately 10 d, 0 to 100 scale where 0 is no effect and 100 is complete control
Method in brief: as §1

corn (Zea mays) = assay: Test A postemergence; conditions: Zea mays, post-emergence, 240 h; for Corn plant response rating (crop injury, 0 = no effect, 100 = complete kill) at 125 g/ha: 125 g ai/ha, Postemergence, visual injury after approximately 10 d, 0 to 100 scale where 0 is no effect and 100 is complete control
Method in brief: as §1

[11] = test system: giant foxtail (Setaria faberii); assay: Test A postemergence; conditions: Setaria faberi, post-emergence, 240 h; for pest or weed control at 125 g/ha: 125 g ai/ha
Method in brief: as §1

[12] = test system: ragweed (common ragweed, Ambrosia elatior); assay: Test A postemergence; conditions: Ambrosia artemisiifolia, post-emergence, 240 h; for pest or weed control at 125 g/ha: 125 g ai/ha
Method in brief: as §1

[13] = test system: ryegrass, Italian (Italian ryegrass, Lolium multiflorum); assay: Test A postemergence; conditions: Lolium multiflorum, post-emergence, 240 h; for pest or weed control at 125 g/ha: 125 g ai/ha
Method in brief: as §1

[14] = test system: wheat (Triticum aestivum); assay: Test A postemergence; conditions: Triticum aestivum, post-emergence, 240 h; for plant injury at 125 g/ha: 125 g ai/ha
Method in brief: as §1

[15] = 500 g ai/ha, postemergence, visual injury, 0 to 100 scale (0 no effect, 100 complete control), approx. 10 d

| Structure (SMILES) | pest or weed control at 125 g/ha (Kochia (Kochia scoparia) [1]) | pest or weed control at 500 g/ha (Kochia (Kochia scoparia) [1]) | pest or weed control at 125 g/ha [2] | pest or weed control at 500 g/ha [2] | pest or weed control at 125 g/ha [3] | pest or weed control at 500 g/ha [3] | pest or weed control at 125 g/ha [4] | pest or weed control at 500 g/ha [4] | pest or weed control at 125 g/ha [5] | pest or weed control at 500 g/ha [5] | pest or weed control at 125 g/ha [6] | pest or weed control at 500 g/ha [6] | pest or weed control at 125 g/ha [9] | pest or weed control at 125 g/ha [10] | Corn plant response rating (crop injury, 0 = no effect, 100 = complete kill) at 125 g/ha (corn (Zea mays)) | other results |
| --- | --- | --- | --- | --- | --- | --- | --- | --- | --- | --- | --- | --- | --- | --- | --- | --- |
| O=C1NC[C@H](c2ccc3c(c2)OCO3)[C@H]1C(=O)Nc1ccc(F)c(F)c1F [Compound 1027] | 80% | 90% | 90% | 90% | 40% | 90% | 0% | 40% | 70% | 80% | 30% | 0% | 70% | 0% | 0% | pest or weed control at 125 g/ha ([7]; postemergence, visual injury on 0 to 100 scale (0 no effect, 100 complete control), approx. 10 d, read-out: Galium plant response rating): 50%; pest or weed control at 500 g/ha ([7]; 500 g ai/ha, postemergence, visual injury, 0 to 100 scale (0 no effect, 100 complete control), approx. 10 d, read-out: Plant response rating, Galium): 70%; pest or weed control at 125 g/ha (Kochia (Kochia scoparia) [8]; postemergence, visual injury on 0 to 100 scale (0 no effect, 100 complete control), approx. 10 d, read-out: Kochia plant response rating): 0%; pest or weed control at 500 g/ha (Kochia (Kochia scoparia) [8]; 500 g ai/ha, postemergence, visual injury, 0 to 100 scale (0 no effect, 100 complete control), approx. 10 d, read-out: Plant response rating, Kochia): 30%; pest or weed control at 500 g/ha [9, 15]: 90%; pest or weed control at 500 g/ha [10, 15]: 40%; Corn plant response rating (crop injury, 0 = no effect, 100 = complete kill) at 500 g/ha (corn (Zea mays); [15]): 0%; pest or weed control at 125 g/ha ([11]; postemergence, visual injury on 0 to 100 scale (0 no effect, 100 complete control), approx. 10 d, read-out: Foxtail, Giant plant response rating): 20%; pest or weed control at 500 g/ha ([11]; 500 g ai/ha, postemergence, visual injury, 0 to 100 scale (0 no effect, 100 complete control), approx. 10 d, read-out: Plant response rating, Foxtail, Giant): 60%; pest or weed control at 125 g/ha ([12]; postemergence, visual injury on 0 to 100 scale (0 no effect, 100 complete control), approx. 10 d, read-out: Ragweed plant response rating): 0%; pest or weed control at 500 g/ha ([12]; 500 g ai/ha, postemergence, visual injury, 0 to 100 scale (0 no effect, 100 complete control), approx. 10 d, read-out: Plant response rating, Ragweed): 0%; pest or weed control at 125 g/ha ([13]; postemergence, visual injury on 0 to 100 scale (0 no effect, 100 complete control), approx. 10 d, read-out: Ryegrass, Italian plant response rating): 0%; pest or weed control at 500 g/ha ([13]; 500 g ai/ha, postemergence, visual injury, 0 to 100 scale (0 no effect, 100 complete control), approx. 10 d, read-out: Plant response rating, Ryegrass, Italian): 30%; plant injury at 125 g/ha ([14]; postemergence, visual injury on 0 to 100 scale (0 no effect, 100 complete control), approx. 10 d, read-out: Wheat plant response rating): 0%; plant injury at 500 g/ha ([14]; 500 g ai/ha, postemergence, visual injury, 0 to 100 scale (0 no effect, 100 complete control), approx. 10 d, read-out: Plant response rating, Wheat): 0% |
| CC(C)COc1cccc([C@H]2CNC(=O)[C@@H]2C(=O)Nc2cccc(F)c2F)c1 [Compound 965] | 0% | 60% | 90% | 90% | 90% | 90% | 0% | 0% | 0% | 0% | 70% | 90% | 80% | 30% | 30% | pest or weed control at 125 g/ha ([7]; Postemergence, visual injury after approximately 10 d, 0 to 100 scale where 0 is no effect and 100 is complete control, read-out: Plant response rating, Galium): 40%; pest or weed control at 125 g/ha (Kochia (Kochia scoparia) [8]; Postemergence, visual injury after approximately 10 d, 0 to 100 scale where 0 is no effect and 100 is complete control, read-out: Plant response rating, Kochia): 0%; pest or weed control at 125 g/ha ([11]; Postemergence, visual injury after approximately 10 d, 0 to 100 scale where 0 is no effect and 100 is complete control, read-out: Plant response rating, Foxtail, Giant): 70%; pest or weed control at 125 g/ha ([12]; Postemergence, visual injury after approximately 10 d, 0 to 100 scale where 0 is no effect and 100 is complete control, read-out: Plant response rating, Ragweed): 0%; pest or weed control at 125 g/ha ([13]; Postemergence, visual injury after approximately 10 d, 0 to 100 scale where 0 is no effect and 100 is complete control, read-out: Plant response rating, Ryegrass, Italian): 0%; plant injury at 125 g/ha ([14]; Postemergence, visual injury after approximately 10 d, 0 to 100 scale where 0 is no effect and 100 is complete control, read-out: Plant response rating, Wheat): 20% |
